From patent US20220031625A1, “OPHTHALMIC COMPOSITIONS FOR DELIVERING MEIBUM-LIKE MATERIALS” (Altaire Pharmaceuticals, Inc., priority 2020, published 2022) come the findings set out here.

This data set has as its system normal human keratinocytes/stratified squamous epithelium (EPIOCULAR model). Put plainly: Ocular irritation test - MTT assay on EPIOCULAR model. The data set is classed as cell-based. The procedure:
Another Ocular Irritation Study was done by exposing a microemulsion containing polyoxyl 35 castor oil in accordance with an embodiment of the present disclosure onto normal human keratinocytes/stratified squamous epithelium which is similar to that found in the cornea epithelium of the human eye (EPIOCULAR model), and then checking tissue viability with MTT assay for cytoxicity after incubation in comparison with a water control (Cyprotex). The study design and results are summarized below in Table 7.
A general note: Tetrazolium dyes change colour on reduction, which living cells bring about.

The structures appear in SMILES notation.

As for `COC(C)=O` [Methyl Acetate], under “EPIOCULAR model”, the “Irritation Response (Irritant if ≤60%)” value is on record as “Positive”. In addition, the “Mean Tissue Viability” value (in comparison with a water control) was 31.1%.
